The record followed here is ChEMBL document CHEMBL5543059, “Discovery of anti-inflammatory natural flavonoids: Diverse scaffolds and promising leads for drug discovery” (Eur J Med Chem, 2023).

Test [1] deals with BV-2. Description: Anti-inflammatory activity in mouse BV-2 cells assessed as reduction in LPS-induced NO production pretreated for 1 hr followed by LPS-stimulation and measured after 18 hrs by 2,3-diaminonaphthalene reagent based fluorescence analysis. The test is classed as functional, cell-based.
In test [2] the test system is RAW264.7. Description: Antiinflammatory activity in LPS-activated mouse RAW264.7 cells assessed as inhibition of ROS production at 10 uM relative to control. On the set-up: scale not given: the % may be the effect or the level left. The class given is functional.
Test [3] concerns RAW264.7. The experiment in a line: Antiinflammatory activity in mouse RAW264.7 cells assessed as decrease in LPS-induced IL-6 secretion after 24 hrs by ELISA method. The class given is functional, cell-based. The settings on record: RAW264.7, 24 h.
For test [4], the target named is T1, Polyunsaturated fatty acid 5-lipoxygenase (Homo sapiens) (UniProt P09917).
T1 sequence (whole entry): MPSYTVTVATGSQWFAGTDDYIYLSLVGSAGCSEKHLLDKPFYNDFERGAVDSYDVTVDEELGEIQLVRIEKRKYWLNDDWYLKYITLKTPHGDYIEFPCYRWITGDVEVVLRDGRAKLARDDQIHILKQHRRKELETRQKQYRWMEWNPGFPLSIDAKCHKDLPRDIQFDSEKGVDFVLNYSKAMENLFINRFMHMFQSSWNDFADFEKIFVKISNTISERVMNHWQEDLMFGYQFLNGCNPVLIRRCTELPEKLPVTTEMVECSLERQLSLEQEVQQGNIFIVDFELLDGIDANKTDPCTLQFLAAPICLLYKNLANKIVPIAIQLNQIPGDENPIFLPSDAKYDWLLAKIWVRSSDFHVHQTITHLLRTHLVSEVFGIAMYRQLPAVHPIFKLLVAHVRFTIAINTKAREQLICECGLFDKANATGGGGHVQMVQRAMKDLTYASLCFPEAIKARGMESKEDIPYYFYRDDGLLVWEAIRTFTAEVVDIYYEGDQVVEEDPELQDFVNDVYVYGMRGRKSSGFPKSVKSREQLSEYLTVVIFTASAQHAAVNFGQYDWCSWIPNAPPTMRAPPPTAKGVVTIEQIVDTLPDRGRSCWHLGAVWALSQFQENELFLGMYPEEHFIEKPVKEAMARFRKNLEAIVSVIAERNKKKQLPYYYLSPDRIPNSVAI
Description: Inhibition of 5-Lipoxygenase (unknown origin) at 30 uM relative to control.

For test [5], the system named is RAW264.7. The experiment in a line: Anti-inflammatory activity in mouse RAW264.7 cells assessed as inhibition of LPS-induced NO production at 20 uM by Griess reagent based analysis relative to control. The class given is functional. On the set-up: scale not given: the % may be the effect or the level left.
For test [6], the system named is RAW264.7. Description: Anti-inflammatory activity in mouse RAW264.7 cells assessed as inhibition of LPS-induced nitric oxide production preincubated for 2 hrs followed by LPS stimulation and measured after 24 hrs by Griess assay. The test is classed as functional, cell-based. (Griess reagent forms a coloured azo dye with nitrite.)
Test [7] has as its system BV-2. Description: Antiinflammatory activity against mouse BV-2 cells assessed as reduction in LPS induced NO production measured for 24 hrs by Griess reagent based analysis. The test is classed as functional, cell-based. The settings on record: BV-2, 24 h.
A further test concerns THP-1. The experiment in a line: Anti-inflammatory activity in LPS-stimulated human THP-1 cells assessed as reduction of TNFalpha measured for 12 hrs by ELISA method. The test is classed as functional, cell-based. The settings on record: THP-1, 12 h. (In general: In an ELISA, binding on a coated surface is turned into a signal by an enzyme label.)
The test system of a further test is B16-F10. The experiment in a line: Anti-inflammatory activity in LPS-stimulated mouse B16-F10 cells assessed as reduction in TNFalpha production measured for 12 hrs by ELISA method. The class given is functional, cell-based. The settings on record: B16-F10, 12 h.
For test [8], the system named is J774.A1. The experiment in a line: Anti-inflammatory activity in mouse J774.A1 macrophage cells assessed as reduction in LPS-induced TNF-alpha production. The class given is functional, cell-based.
Test [9] relates to J774.A1. Description: Antiinflammatory activity in LPS-induced mouse J774.A1 macrophage cells assessed as reduction in LPS-induced IL-1 beta level. The class given is functional, cell-based.
Test [10] has as its system RAW264.7. The experiment in a line: Antiinflammatory activity in LPS-induced mouse RAW264.7 cells assessed as reduction in COX2 mRNA expression incubated for 24 hrs by qRT-PCR analysis. The class given is functional, cell-based. The settings on record: RAW264.7, 24 h.
The test system of test [11] is BV-2. The experiment in a line: Anti-inflammatory activity in mouse BV-2 cells assessed as inhibition of LPS-induced NO production preincubated with compound for 1 hrs followed by LPS stimulation and measured after 24 hrs by Griess reagent based assay. The class given is functional, cell-based.
Test [12] relates to RAW264.7. Description: Anti-inflammatory activity in LPS-stimulated mouse RAW264.7 cells assessed as inhibition of NO production incubated for 24 hrs by Griess reagent based assay. The test is classed as functional, cell-based. The settings on record: RAW264.7, 24 h.
Test [13] can be described thus: Antioxidant activity assessed as DPPH radical scavenging activity measured for 30 mins. The test is classed as functional. Background: Loss of DPPH colour is used to gauge radical scavenging.
The nature of test [14]: Antioxidant activity assessed as ABTS radical scavenging activity incubated for 40 mins. The test is classed as functional.
For test [15], the system named is RAW264.7. The experiment in a line: Anti-inflammatory activity in mouse RAW264.7 cells assessed as inhibition of LPS-induced nitric oxide production measured after 18 hrs by Griess assay. The test is classed as functional, cell-based. The settings on record: RAW264.7, 18 h.
Test [16] relates to BV-2. The experiment in a line: Antiinflammatory activity in mouse BV-2 cells assessed as reduction in LPS-induced NO production pre-treated with compound for 1 hr followed by LPS-stimulation and measured for 23 hrs by Griess reagent based analysis. The test is classed as functional, cell-based.
For test [17], the system named is Mus musculus. The experiment in a line: Antiinflammatory activity against TPA-induced CD-1 mouse ear edema model assessed as reduction in ear edema at 1 uM relative to control. The class given is functional. On the set-up: scale not given: the % may be the effect or the level left.
Test [18] has as its system RAW264.7. The experiment in a line: Antiinflammatory activity against mouse RAW264.7 cells assessed as reduction of LPS-induced NO production. The class given is functional, cell-based.
Test [19] is described as follows: Inhibition of TNF-alpha induced NF-kappaB activation in HEK293-A cells incubated for 15 mins by Western blot analysis. The test is classed as cell-based. The settings on record: Homo sapiens, HEK293, 0.25 h.
A further test has as its system HEK293. The experiment in a line: Anti-inflammatory activity against TNFalpha-induced HEK293 cells assessed as inhibition of NF-kappaB activity pre-indubated for 1 hr followed by TNFalpha treatment measured for 5 hrs by luciferase based assay. The test is classed as functional, cell-based. The settings on record: Homo sapiens.
Test [20] concerns Mus musculus. Description: Anti-inflammatory activity in mouse model of xylene-induced auricle edema assessed as inhibition of ear swelling at 50 mg/kg, IG pre-treated for 1 hr followed by xylene addition and measured after 1 hr relative to control. The class given is functional. On the set-up: scale not given: the % may be the effect or the level left.

`Oc1ccc2c(c1)OC[C@H](c1cc3c(cc1O)OCO3)[C@H]2O`: in the test on BV-2 [1], the IC50 (as a rule, the point on the concentration scale where inhibition reaches its midpoint) stood at 40.1 µM.
For the compound `COc1c(/C=C/C(=O)c2ccc(O)cc2)ccc(O)c1O`, in the test with RAW264.7 [2], the Activity amounted to 80%.
In the case of `COc1cc2c(c(C)c1OC)O[C@H](c1cc(O)c(OC)c(O)c1)CC2`, in the test with RAW264.7 [3], the IC50 came to 18 µM.
As to `COc1cc(O)ccc1/C=C/C(=O)c1ccc(O)cc1` [ECHINATIN], in the test with RAW264.7 [2], the Activity came out at 80%.
On to `COc1cc2oc(-c3ccc(O)c(O)c3)cc(=O)c2c(O)c1OC` [CIRSILIOL], for which the inhibition (in general, the relative decrease from the control value, in per cent) in [4] is 48.5%. Further, the Activity in the test with RAW264.7 [5] was 54%.
On to `CC1(C)C=Cc2c(O)ccc(-c3coc4cc(O)cc(O)c4c3=O)c2O1`, for which, in the test on RAW264.7 [6], the IC50 was found to be 0.8 µM.
As to `Oc1cc(O)c2c(c1)O[C@@H](c1ccc(O)c(O)c1)[C@@H](O)C2` [(+)-EPICATECHIN], the IC50 in the test with BV-2 [7] is 29.1 µM.
As to `COc1c(OC)c(O)c2c(=O)cc(-c3ccc(O)c(O)c3)oc2c1OC` [SIDERITIFLAVONE], the IC50 with THP-1 stood at 12.4 µM; with B16-F10 it was 5.6 µM.
As to `COc1c2c(cc3oc(-c4ccccc4)cc(=O)c13)OCO2`, the IC50 in the test with J774.A1 [8] stood at 0.22 µM; in the test on J774.A1 [9], 6.4 µM.
Turning to `COc1c(OC)c(O)c2c(=O)cc(-c3ccc(O)cc3)oc2c1OC` [XANTHOMICROL], the IC50 is 8.1 µM in the test with THP-1 and 3.8 µM in the test on B16-F10.
Consider `CC(C)=CCC/C(C)=C/Cc1cc(C2CC(=O)c3c(O)cc(O)cc3O2)cc(O)c1O` (configuration not stated), for which, in the test on RAW264.7 [10], the IC50 is 11.7 µM.
For the compound `COc1c(O)ccc2c1OC[C@H](c1cc3c(cc1O)OCO3)[C@H]2O`, the concentration for half-maximal inhibition (IC50) with BV-2 [1] stood at 46.3 µM.
Take `COc1cc2oc(-c3ccccc3)cc(=O)c2c(O)c1OC` [MOSLOFLAVONE]: the IC50 in the test with J774.A1 [8] is 0.22 µM; in the test on J774.A1 [9], 6.4 µM.
With `COc1cc(-c2cc(=O)c3c(O)c(OC)c(O)cc3o2)c(O)cc1O`, in test [4], the inhibition is 46.9%. The Activity in the test on RAW264.7 [5] was 54%.
With `COc1cc(O)c2c(=O)c(OC)c(-c3ccc(O)c(O)c3)oc2c1`, the IC50 in the test on BV-2 [11] came to 4.2 µM.
As for `COc1ccc2oc(-c3ccc(OC)c(OC)c3)cc(=O)c2c1`, the IC50 in the test with THP-1 turned out to be 2.4 µM; with B16-F10 it was 1.3 µM.
In the case of `COc1c(O)ccc2c(=O)cc(-c3ccc(O)c(O)c3)oc12`, the IC50 turned out to be 27.7 µM with RAW264.7 [12], 5 µM in [13] and 7.9 µM in test [14].
`Cc1c(O)c2c(c(C(=O)C(C)C)c1O)OC(c1ccccc1)CC2=O` (configuration not stated): the IC50 in the test on RAW264.7 [15] came to 9.73 µM.
Consider `CC(=O)O[C@@H]1c2c(ccc3c(=O)c(O)c(-c4ccccc4)oc23)OC(C)(C)[C@@H]1OC(C)=O`, for which the IC50 in the test on BV-2 [16] turned out to be 11.3 µM. The Activity in the test with Mus musculus [17] is listed as 12.28%.
Regarding `COc1cc(O)c2c(=O)cc(-c3ccc(O)cc3)oc2c1` [GENKWANIN], the IC50 in the test with RAW264.7 [12] is 5.64 µM.
Regarding `CC(C)=CCc1c([C@@H]2CCc3ccc(O)cc3O2)cc2c(c1O)OC(C)(C)C=C2` [KAZINOL B], the IC50 with RAW264.7 [18] was 29.3 µM.
On to `CC(C)=CCC/C(C)=C/Cc1c(C2CC(=O)c3c(O)cc(O)cc3O2)ccc(O)c1O` (configuration not stated), for which the IC50 in the test with RAW264.7 [10] was found to be 11.7 µM.
In the case of `C=C1C(=O)O[C@@H]2C3O[C@]3(C)CC/C=C(\C)CC[C@@H]12` (some centres not stated), the IC50 (in test [19]; with HEK293) was 1.5 µM in each case.
`CC(C)=CCC/C(C)=C/Cc1c(O)cc2c(c1O)C(=O)CC(c1ccc(O)c(O)c1)O2` (configuration not stated): the IC50 with RAW264.7 [10] was 11.7 µM.
Turning to `COc1ccc(-c2cc(=O)c3c(OC)c(OC)c(OC)cc3o2)cc1OC` [SINENSETIN], the Activity in the test on Mus musculus [20] is given as 58%.
`COc1c(O)cc2oc(-c3ccccc3)cc(=O)c2c1O` [OROXYLIN A] yielded an IC50 in test [19] of 3.9 µM.
